According to patent US8916183B2, “Pesticidal compositions and processes related thereto” (priority 2012, dated 2014):

Assays:
Type in all cases: in vivo
[1] = test system: Beet Armyworm (BAW) (Spodoptera exigua); assay: Bioassay on beet armyworm (BAW), 128-well diet tray assay; settings: Spodoptera exigua; beet armyworm, 50 μg/cm^2; read-out: % Mortality BAW 50 μg/cm^2
[2] = test system: Corn Earworm (CEW) (Helicoverpa zea); assay: Bioassay on corn earworm (CEW), 128-well diet tray assay; settings: Helicoverpa zea; corn earworm, 50 μg/cm^2; read-out: % Mortality CEW 50 μg/cm^2
Procedure, shortened: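 Larvae in a 128-well diet tray were held at 25° C under 14:10 light-dark for five to seven days. Percent mortality was scored per well and averaged over eight wells, then reported on a rating scale.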

[3] = test system: Green Peach Aphid (GPA) (Myzus persicae); assay: Bioassay on green peach aphid (GPA), foliar spray on cabbage seedlings; settings: green peach aphid, 200 ppm, read-out: % Mortality GPA 200 ppm
Procedure, shortened: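 Cabbage seedlings (2-3 true leaves), each infested a day earlier with 20-50 wingless adult and nymph GPA, were sprayed on both leaf sides to runoff, four pots per treatment. Corrected % control was calculated against solvent-check plants.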

Row | SMILES | mortality at 50 µg/cm2 [1] [%] | mortality at 50 µg/cm2 [2] [%] | mortality at 200 ppm [3] [%]
1 | CCOc1ccccc1N1CCS/C1=N\N=C\c1ccc(-c2ncn(-c3ccc(OC(F)(F)F)cc3)n2)cc1 [Compound 146C] | 50 to 100 | 50 to 100 | 0 to 80
2 | COc1cccc(N2CCS/C2=N\N=C\c2ccc(-c3ncn(-c4ccc(OC(F)(F)F)cc4)n3)cc2)c1 [Compound 147C] | 50 to 100 | 50 to 100 | 0 to 80
3 | FC(F)(F)Oc1ccc(-n2cnc(-c3ccc(/C=N/N=C4\SCCN4c4c(Cl)cccc4C(F)(F)F)cc3)n2)cc1 [Compound 149C] | 50 to 100 | 50 to 100 | 0
4 | CC(C)Cc1ccccc1N1CCS/C1=N\N=C\c1ccc(-c2ncn(-c3ccc(OC(F)(F)F)cc3)n2)cc1 [Compound 150C] | 50 to 100 | 50 to 100 | 0
5 | CC(C)=Cc1ccccc1N1CCS/C1=N\N=C\c1ccc(-c2ncn(-c3ccc(OC(F)(F)F)cc3)n2)cc1 [Compound 151C] | 50 to 100 | 50 to 100 | 0 to 80
6 | Cc1ccccc1N1/C(=N/N=C/c2ccc(-c3ncn(-c4ccc(OC(F)(F)F)cc4)n3)cc2)SCC1C (stereo not drawn) [Compound 154C] | 50 to 100 | 50 to 100 | 0 to 80
7 | CCc1cccc(C)c1N1/C(=N/N=C/c2ccc(-c3ncn(-c4ccc(OC(F)(F)F)cc4)n3)cc2)SCC1C (stereo not drawn) [Compound 156C] | 50 to 100 | 50 to 100 | 0 to 80
8 | CC1CS/C(=N\N=C\c2ccc(-c3ncn(-c4ccc(OC(F)(F)F)cc4)n3)cc2)N1c1c(Cl)cccc1Cl (stereo not drawn) [Compound 157C] | 50 to 100 | 50 to 100 | 0 to 80
9 | Cc1cccc(Cl)c1N1/C(=N/N=C/c2ccc(-c3ncn(-c4ccc(OC(F)(F)F)cc4)n3)cc2)SCC1C (stereo not drawn) [Compound 158C] | 50 to 100 | 50 to 100 | 0 to 80
10 | CC1CS/C(=N\N=C\c2ccc(-c3ncn(-c4ccc(OC(F)(F)F)cc4)n3)cc2)N1c1ccccc1OC(F)(F)F (stereo not drawn) [Compound 168C] | 50 to 100 | 50 to 100 | 0
11 | COc1cc(C)c(-n2c(C)cs/c2=N\N=C\c2ccc(-c3ncn(-c4ccc(OC(F)(F)F)cc4)n3)cc2)c(C)c1 [Compound 172C] | 50 to 100 | 50 to 100 | 0
12 | Cc1ccccc1-n1c(C)cs/c1=N\N=C\c1ccc(-c2ncn(-c3ccc(OC(F)(F)F)cc3)n2)cc1 [Compound 173C] | 50 to 100 | 50 to 100 | 0
13 | Cc1cccc(Cl)c1-n1c(C)cs/c1=N\N=C\c1ccc(-c2ncn(-c3ccc(OC(F)(F)F)cc3)n2)cc1 [Compound 174C] | 50 to 100 | 50 to 100 | 0 to 80
14 | Cc1cccc(C)c1-n1c(C)cs/c1=N\N=C\c1ccc(-c2ncn(-c3ccc(OC(F)(F)F)cc3)n2)cc1 [Compound 175C] | 50 to 100 | 50 to 100 | 0
15 | CC(C)c1ccccc1N1CCCS/C1=N\N=C\c1ccc(-c2ncn(-c3ccc(OC(F)(F)F)cc3)n2)cc1 [Compound 177C] | 50 to 100 | 50 to 100 | 0
16 | CC(C)c1ccccc1N1CCCS/C1=N\N=C\c1ccc(-c2ncn(-c3ccc(C(F)(F)F)cc3)n2)cc1 [Compound 179C] | 50 to 100 | 50 to 100 | 0
17 | CCc1cccc(C)c1N1CCCS/C1=N\N=C\c1ccc(-c2ncn(-c3ccc(OC(F)(F)F)cc3)n2)cc1 [Compound 180C] | 50 to 100 | 50 to 100 | 0 to 80

Row | SMILES | mortality at 50 µg/cm2 [1] [%] | mortality at 50 µg/cm2 [2] [%] | mortality at 200 ppm [3] [%]
18 | COc1cc(C)c(N2CCCS/C2=N\N=C\c2ccc(-c3ncn(-c4ccc(OC(F)(F)F)cc4)n3)cc2)c(C)c1 [Compound 181C] | 50 to 100 | 50 to 100 | 0 to 80
19 | Cc1cccc(C)c1N1CCCS/C1=N\N=C\c1ccc(-c2ncn(-c3ccc(OC(F)(F)F)cc3)n2)cc1 [Compound 182C] | 50 to 100 | 50 to 100 | 0 to 80
20 | CCC(C)c1ccccc1N1CCCS/C1=N\N=C\c1ccc(-c2ncn(-c3ccc(OC(F)(F)F)cc3)n2)cc1 (stereo not drawn) [Compound 183C] | 50 to 100 | 50 to 100 | 0
21 | Cc1cc(C)c(N2CCCS/C2=N\N=C\c2ccc(-c3ncn(-c4ccc(OC(F)(F)F)cc4)n3)cc2)c(C)c1 [Compound 184C] | 50 to 100 | 50 to 100 | 0
22 | CCc1ccccc1N1CCCS/C1=N\N=C\c1ccc(-c2ncn(-c3ccc(OC(F)(F)F)cc3)n2)cc1 [Compound 185C] | 50 to 100 | 50 to 100 | 0
23 | FC(F)(F)Oc1ccc(-n2cnc(-c3ccc(/C=N/N=C4\SCCCN4c4ccccc4C4CC4)cc3)n2)cc1 [Compound 186C] | 50 to 100 | 50 to 100 | 0 to 80
24 | FC(F)(F)Oc1ccc(-n2cnc(-c3ccc(/C=N/N=C4\SCCCN4c4c(Cl)cccc4Cl)cc3)n2)cc1 [Compound 187C] | 50 to 100 | 50 to 100 | 0
25 | Fc1cccc(Cl)c1N1CCCS/C1=N\N=C\c1ccc(-c2ncn(-c3ccc(OC(F)(F)F)cc3)n2)cc1 [Compound 188C] | 50 to 100 | 50 to 100 | 0 to 80
26 | Fc1cccc(F)c1N1CCCS/C1=N\N=C\c1ccc(-c2ncn(-c3ccc(OC(F)(F)F)cc3)n2)cc1 [Compound 189C] | 50 to 100 | 50 to 100 | 0 to 80
27 | FC(F)(F)Oc1ccc(-n2cnc(-c3ccc(/C=N/N=C4\SCCCN4c4c(Cl)cccc4C(F)(F)F)cc3)n2)cc1 [Compound 190C] | 50 to 100 | 50 to 100 | 0 to 80
28 | COc1ccccc1N1CCCS/C1=N\N=C\c1ccc(-c2ncn(-c3ccc(OC(F)(F)F)cc3)n2)cc1 [Compound 191C] | 50 to 100 | 50 to 100 | 0
29 | COc1ccc(N2CCCS/C2=N\N=C\c2ccc(-c3ncn(-c4ccc(OC(F)(F)F)cc4)n3)cc2)c(C)c1 [Compound 192C] | 50 to 100 | 50 to 100 | 0 to 80
30 | CC(C)Cc1ccccc1N1CCCS/C1=N\N=C\c1ccc(-c2ncn(-c3ccc(OC(F)(F)F)cc3)n2)cc1 [Compound 193C] | 50 to 100 | 50 to 100 | 0 to 80
31 | FC(F)(F)Oc1ccc(-n2cnc(-c3ccc(/C=N/N=C4\SCCCN4c4ccccc4-c4ccccc4)cc3)n2)cc1 [Compound 194C] | 50 to 100 | 50 to 100 | 0 to 80
32 | Cc1ccccc1N1CCCS/C1=N\N=C\c1ccc(-c2ncn(-c3ccc(OC(F)(F)F)cc3)n2)cc1 [Compound 195C] | 50 to 100 | 50 to 100 | 0 to 80
33 | Cc1cccc(Cl)c1N1CCCS/C1=N\N=C\c1ccc(-c2ncn(-c3ccc(OC(F)(F)F)cc3)n2)cc1 [Compound 196C] | 50 to 100 | 50 to 100 | 0
